In ChEMBL document CHEMBL1129401, “Molecular electronic properties of a series of 4-quinolinecarbinolamines define antimalarial activity profile” (1996):

These molecules were tested on Plasmodium berghei (assay: In vivo antimalarial activity against Plasmodium berghei infected mice (Mus musculus) at 640 mg/kg subcutaneous single dose). Settings: not given.
Format: functional

Compound | MfI
COc1ccc(-c2cc(C(O)C3CCCCN3)c3cc(C)cc(C)c3n2)cc1 (stereo unspecified) | 0.03
COc1ccc(-c2cc(C(O)C3CCCCN3)c3cccc(C(F)(F)F)c3n2)cc1 (stereo unspecified) | 0.07
OC(c1cc(C(F)(F)F)nc2c(Cl)cc(Cl)cc12)C1CCCCN1 (stereo unspecified) | 0.17
Cc1ccc(-c2cc(C(O)C3CCCCN3)c3cccc(C(F)(F)F)c3n2)cc1 (stereo unspecified) | 0.09
COc1cc(C(F)(F)F)c2nc(C(F)(F)F)cc(C(O)C3CCCCN3)c2c1 (stereo unspecified) | 0.81
OC(c1cc(C(F)(F)F)nc2c(Cl)cccc12)C1CCCCN1 (stereo unspecified) | 0.03
Cc1cc(C)c2nc(-c3ccc(Cl)cc3)cc(C(O)C3CCCCN3)c2c1 (stereo unspecified) | 0.03
OC(c1cc(-c2ccccc2)nc2c(Cl)cc(Cl)cc12)C1CCCCN1 (stereo unspecified) | 0.04
OC(c1cc(-c2ccccc2)nc2c(C(F)(F)F)cccc12)C1CCCCN1 (stereo unspecified) | 0.11
OC(c1cc(-c2cccc(C(F)(F)F)c2)nc2c(C(F)(F)F)cccc12)C1CCCCN1 (stereo unspecified) | 1.2
Cc1cccc2c(C(O)C3CCCCN3)cc(-c3ccc(Cl)cc3)nc12 (stereo unspecified) | 0.07
OC(c1cc(Oc2ccc(Cl)cc2)nc2c(Cl)cc(Cl)cc12)C1CCCCN1 (stereo unspecified) | 0.8
OC(c1cc(-c2ccc(Cl)cc2)nc2c(Cl)cc(Cl)cc12)C1CCCCN1 (stereo unspecified) | 1.29
OC(c1cc(-c2ccccc2)nc2c(Cl)cccc12)C1CCCCN1 (stereo unspecified) | 0.05
OC(c1cc(-c2ccccc2)nc2c1ccc1ccccc12)C1CCCCN1 (stereo unspecified) | 0.1
OC(c1cc(C(F)(F)F)nc2c1ccc1ccccc12)C1CCCCN1 (stereo unspecified) | 0.13
Cc1cc(C)c2nc(Oc3ccc(Cl)cc3)cc(C(O)C3CCCCN3)c2c1 (stereo unspecified) | 0.03
OC(c1cc(-c2ccc(Cl)cc2)nc2c(C(F)(F)F)cccc12)C1CCCCN1 (stereo unspecified) | 0.31
OC(c1cc(C(F)(F)F)nc2c1cc(Cl)c1ccccc12)C1CCCCN1 (stereo unspecified) | 0.12
Cc1cc(C)c2nc(Nc3ccc(Cl)cc3)cc(C(O)C3CCCCN3)c2c1 (stereo unspecified) | 0.03
Cc1cccc2c(C(O)C3CCCCN3)cc(-c3ccc(F)cc3)nc12 (stereo unspecified) | 0.05
Cc1ccc(-c2cc(C(O)C3CCCCN3)c3cc(C)cc(C)c3n2)cc1 (stereo unspecified) | 0.1
OC(c1cc(Oc2ccc(Cl)c(Cl)c2)nc2c(Cl)cc(Cl)cc12)C1CCCCN1 (stereo unspecified) | 0.87
Cc1cc(C)c2nc(-c3ccc(F)cc3)cc(C(O)C3CCCCN3)c2c1 (stereo unspecified) | 0.03

Same assay, conditions: 640 mg/kg

Compound | MfI
OC(c1cc(C(F)(F)F)nc2c(C(F)(F)F)cccc12)C1CCCCN1 (stereo in doubt; 1d) [MEFLOQUINE] | 0.81
OC(c1cc(C(F)(F)F)nc2c(C(F)(F)F)cccc12)C1CCCCN1 (stereo in doubt; 1a) [MEFLOQUINE] | 1

These molecules were tested on Plasmodium berghei (assay: In vivo antimalarial activity against Plasmodium berghei infected mice (Mus musculus) at 640 mg/kg subcutaneous single dose; NC=non-curative). Settings: not given.
Format: functional, organism-based
Parameters: dose 640 mg/kg

Compound | MfI
Cc1cc(C)c2nc3c(c(C(O)C4CCCCN4)c2c1)CCC3 (stereo unspecified) | Noncurative dose
OC(c1cc(C(F)(F)F)nc2c(F)cccc12)C1CCCCN1 (stereo unspecified) | Noncurative dose
Cc1cc(C)c2nc(CC/C=C/c3ccc(Cl)cc3)cc(C(O)C3CCCCN3)c2c1 (stereo unspecified) | Noncurative dose
OC(c1ccnc2c(Cl)cccc12)C1CCCCN1 (stereo unspecified) | Noncurative dose
Cc1cccc2c(C(O)C3CCCCN3)cc(-c3ccccc3)nc12 (stereo unspecified) | Noncurative dose
OC(c1ccnc2c(Cl)cc(Cl)cc12)C1CCCCN1 (stereo unspecified) | Noncurative dose
Cc1ccc(-c2cc(C(O)C3CCCCN3)c3cccc(C)c3n2)cc1 (stereo unspecified) | Noncurative dose
O=C(Nc1cccc(C(F)(F)F)c1)c1cc(C(O)C2CCCCN2)c2cccc(C(F)(F)F)c2n1 (stereo unspecified) | Noncurative dose
NC(=O)c1cc(C(O)C2CCCCN2)c2cccc(C(F)(F)F)c2n1 (stereo unspecified) | Noncurative dose
Cc1cc(C(O)C2CCCCN2)c2cc(Cl)cc(Cl)c2n1 (stereo unspecified) | Noncurative dose
OC(c1cc(-c2ccc(Cl)cc2)nc2c1ccc1ccccc12)C1CCCCN1 (stereo unspecified) | Noncurative dose
Cc1cccc2c(C(O)C3CCCCN3)cc(C(F)(F)F)nc12 (stereo unspecified) | Noncurative dose
Cc1cc(C)c2nc(C(F)(F)F)cc(C(O)C3CCCCN3)c2c1 (stereo unspecified) | Noncurative dose
OC(c1cc(-c2ccc(Cl)cc2)nc2c(Cl)cccc12)C1CCCCN1 (stereo unspecified) | Noncurative dose
OC(c1ccnc2c(C(F)(F)F)cccc12)C1CCCCN1 (stereo unspecified) | Noncurative dose
